How the values were obtained:
Assay in all cases: relative viability (nuclei count vs DMSO), 5 days (fraction); higher = more cells survive
AZD5582 + Linsitinib = compound: C[C@@H](C(=O)N[C@@H](C1CCCCC1)C(=O)N2CCC[C@H]2C(=O)N[C@@H]3[C@@H](CC4=CC=CC=C34)OCC#CC#CCO[C@@H]5CC6=CC=CC=C6[C@@H]5NC(=O)[C@@H]7CCCN7C(=O)[C@H](C8CCCCC8)NC(=O)[C@H](C)NC)NC [AZD5582] + C[C@]1(O)C[C@@H](c2nc(-c3ccc4ccc(-c5ccccc5)nc4c3)c3c(N)nccn32)C1 [Linsitinib] (partner 1 µM)
Procedure, shortened: (§1)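 Relative viability equals treated-well nuclei counts divided by vehicle-well nuclei counts. Counts came from 4× images of lung cancer cell lines grown in 1536-well plates for 5 days after pin-tool dosing on the day after seeding. Dosing used one drug alone or a fixed anchor-drug dose plus five library-drug doses (not always all listed) in √10 steps, and values are medians of duplicate plates.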

[1] = compound: Cn1nnc2c(C(N)=O)ncn2c1=O [Temozolomide] + CC(=O)c1c(C)c2cnc(Nc3ccc(N4CCNCC4)cn3)nc2n(C2CCCC2)c1=O [Palbociclib] (partner 0.5 µM)
Procedure, shortened: as §1

AZD5582 + Bortezomib = compound: C[C@@H](C(=O)N[C@@H](C1CCCCC1)C(=O)N2CCC[C@H]2C(=O)N[C@@H]3[C@@H](CC4=CC=CC=C34)OCC#CC#CCO[C@@H]5CC6=CC=CC=C6[C@@H]5NC(=O)[C@@H]7CCCN7C(=O)[C@H](C8CCCCC8)NC(=O)[C@H](C)NC)NC [AZD5582] + CC(C)C[C@H](NC(=O)[C@H](Cc1ccccc1)NC(=O)c1cnccn1)B(O)O [Bortezomib] (partner 0.002 µM)
Procedure, shortened: as §1

Temozolomide + Dasatinib = compound: Cn1nnc2c(C(N)=O)ncn2c1=O [Temozolomide] + Cc1nc(Nc2ncc(C(=O)Nc3c(C)cccc3Cl)s2)cc(N2CCN(CCO)CC2)n1 [Dasatinib] (partner 0.075 µM)
Procedure, shortened: as §1

Cell Line | relative viability (AZD5582 + Linsitinib; first compound 0.001581 µM) | relative viability (AZD5582 + Linsitinib; first compound 0.005 µM) | relative viability (AZD5582 + Linsitinib; first compound 0.01581 µM) | relative viability (AZD5582 + Linsitinib; first compound 0.05 µM) | relative viability ([1]; first compound 0.2 µM) | relative viability ([1]; first compound 0.6325 µM) | relative viability ([1]; first compound 2 µM) | relative viability ([1]; first compound 6.325 µM) | relative viability ([1]; first compound 20 µM) | relative viability (AZD5582 + Bortezomib; first compound 0.001581 µM) | relative viability (AZD5582 + Bortezomib; first compound 0.005 µM) | relative viability (AZD5582 + Bortezomib; first compound 0.01581 µM) | relative viability (AZD5582 + Bortezomib; first compound 0.05 µM) | relative viability (Temozolomide + Dasatinib; first compound 0.2 µM) | relative viability (Temozolomide + Dasatinib; first compound 0.6325 µM) | relative viability (Temozolomide + Dasatinib; first compound 2 µM) | relative viability (Temozolomide + Dasatinib; first compound 6.325 µM) | relative viability (Temozolomide + Dasatinib; first compound 20 µM)
HCC-15 | 0.832 | 0.779 | 0.91 | 0.721 | 0.778 | 0.717 | 0.805 | 0.691 | 0.706 | 0.921 | 1.01 | 0.864 | 0.975 | 0.74 | 0.699 | 0.625 | 0.627 | 0.642
HCC-78 | 0.455 | 0.592 | 0.5 | 0.45 | 0.474 | 0.475 | 0.458 | 0.473 | 0.487 | 0.367 | 0.604 | 0.421 | 0.479 | 0.363 | 0.456 | 0.418 | 0.391 | 0.365
HCC-366 | 0.7 | 0.754 | 0.622 | 0.822 | 0.449 | 0.467 | 0.341 | 0.396 | 0.369 | 0.982 | 1.1 | 1.01 | 1.19 | 0.661 | 0.688 | 0.655 | 0.682 | 0.652
HCC-827 | 0.897 | 0.968 | 0.885 | 0.948 | 0.461 | 0.449 | 0.513 | 0.517 | 0.148 | 0.974 | 1.05 | 0.901 | 1.07 | 0.256 | 0.343 | 0.299 | 0.326 | 0.149
HOP-62 | 0.654 | 1 | 0.966 | 1.09 | 0.545 | 0.488 | 0.473 | 0.375 | 0.447 | 0.652 | 0.527 | 0.691 | 0.566 | 0.744 | 0.759 | 0.73 | 0.609 | 0.711
LC-2-ad | 0.916 | 0.938 | 0.911 | 0.97 | 0.474 | 0.494 | 0.512 | 0.537 | 0.473 | 1.05 | 1.14 | 0.938 | 1.04 | 0.628 | 0.662 | 0.836 | 0.471 | 0.472
LCLC-97TM1 |  | 0.16 | 0.191 | 0.148 | 0.272 | 0.237 | 0.197 | 0.231 | 0.191 | 0.542 | 0.531 | 0.455 | 0.298 | 0.76 | 0.807 | 0.934 | 0.813 | 0.803
LCLC-103H | 1.06 | 1.33 | 1 | 1.19 | 0.503 | 0.514 | 0.496 | 0.608 | 0.413 | 0.972 | 1.14 | 0.958 | 1 | 0.524 | 0.567 | 0.548 | 0.565 | 0.471
LOU-NH91 | 0.964 | 0.924 | 0.997 | 1.04 | 0.585 | 0.566 | 0.552 | 0.557 | 0.572 | 0.45 | 0.509 | 0.489 | 0.443 | 0.444 | 0.551 | 0.589 | 0.572 | 0.448

Source: the supplement of paper PMC10307832
